# PubChem BioAssay (NCI)
#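 Five concentrations, 48 hours, 96-well plates. GI50 is the concentration that inhibits growth by half. The concentration for full growth arrest is given as TGI.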
# Experiments:
# Assay in all cases: NCI anticancer screen, dose series, 48 h
# [1] = tested on: 786-0 renal
# [2] = tested on: HCC-2998 colon
# [3] = tested on: HOP-92 NSCLC
# [4] = tested on: HT29 colon
# [5] = tested on: NCI-H226 lung
# [6] = tested on: PC-3 prostate
# [7] = tested on: SK-MEL-5 melanoma
# [8] = tested on: SR leukemia
# [9] = tested on: TK-10 renal
# [10] = tested on: UACC-257 melanoma
Compound,GI50 [1] [µM],TGI [1] [µM],GI50 [2] [nM],TGI [2] [µM],GI50 [3] [µM],TGI [3] [µM],GI50 [4] [nM],TGI [4] [µM],GI50 [5] [µM],TGI [5] [µM],GI50 [6] [nM],TGI [6] [µM],GI50 [7] [µM],TGI [7] [µM],GI50 [8] [nM],TGI [8] [µM],GI50 [9] [µM],TGI [9] [µM],GI50 [10] [µM],TGI [10] [µM]
C=CCC(N[C@@H](CO)c1ccccc1)c1cn(Cc2ccccc2Cl)c(=O)n(Cc2ccccc2Cl)c1=O (stereo partly drawn),> 100,> 100,> 100000,> 100,> 100,> 100,> 100000,> 100,> 100,> 100,83900,> 100,> 100,> 100,> 100000,> 100,> 100,> 100,> 100,> 100
COc1ccc(/C=C(/C(=O)N2CCN(c3ccccc3)CC2)c2cc(OC)c(OC)c(OC)c2)cc1N,0.766,> 100,556,> 100,3.53,> 100,366,13.3,3.2,> 100,414,> 100,0.386,10.9,409,> 100,72.1,> 100,3.65,> 100
Cc1ccc(S(=O)(=O)c2ccc(NC(=O)SCCC(=O)O)cc2)cc1,,> 100,,> 100,,,,> 100,,> 100,,,,,,> 100,,> 100,,> 100
COc1ccc(OC(C)=O)c2c1CCC=CC2=O,,32.5,,32.9,,7.49,,33.7,,33.7,,,,28.9,,40.3,,32.2,,31.8
CCN(CC)CC(C)(C)C(=O)/C=C/c1cccc(/C=C/C(=O)C(C)(C)CN(CC)CC)c1,,1.87,,2.51,,1.68,,1.08,,3.38,,,,2.97,,1.68,,2.35,,2.66
O=C(/C=C/c1ccco1)c1cc(F)c(Cl)cc1Cl,22.3,55.4,,,18.1,39.6,24300,52.1,19.9,47.2,24800,80.1,17,32.5,23000,> 100,28.4,90.1,24.6,50.5
O=C1/C(=N\O)c2ccccc2S1(=O)=O,,> 100,,> 100,,> 100,,> 100,,> 100,,,,> 100,,> 100,,> 100,,> 100
CC1=C(O)c2cn(C)cc2C(=O)C1=O,,> 100,,> 100,,> 100,,> 100,,> 100,,,,> 100,,> 100,,> 100,,> 100
Cc1cc([N+](=O)[O-])ccc1NC(=O)C(=O)C(C(=O)c1ccccc1-c1ccccc1)C1OC(=O)c2ccccc21 (stereo not drawn),,32.5,,29.1,,34,,41.9,,28.5,,,,28.7,,54.7,,33.8,,86.5
OC(c1cc(-c2cccc(Cl)c2)nc2ccccc12)C1CCCCN1 (stereo not drawn),1.84,3.47,2090,4.15,1.12,2.51,1700,3.42,,,1400,2.84,,,1270,3.8,2.12,4.48,1.85,3.33
O=C(c1ccco1)c1nc2cc(C(F)(F)F)ccc2nc1C(F)(F)F,> 100,> 100,> 100000,> 100,27.2,> 100,> 100000,> 100,,,> 100000,> 100,> 100,> 100,40500,> 100,> 100,> 100,> 100,> 100
C=C1CC2CCCC12C=O (stereo not drawn),,> 10,,> 10,,> 10,,> 10,,,,> 10,,> 10,,> 10,,> 10,,> 10
O=C(COc1ccc(/C=C2\COc3ccccc3C2=O)cc1)Nc1nccs1,13.9,28.1,828,3.26,,,3700,12.9,14.4,29.9,3950,28.5,12.8,26.7,1310,3.23,28.7,58.5,13.3,30.6
COc1ccc2sc3cccc(NCCN(C)C)c3c(=O)c2c1,3.14,14.5,1830,3.39,,,2030,4.6,3.34,14.1,2960,11.4,2.45,6.27,2290,5.86,4.06,14.3,1.78,3.32
CC(=O)Nc1ccc(/C=c2\sc3nnc(CCC(=O)Nc4ccccc4Cl)n3c2=O)cc1,,48.9,,> 10,,57.7,,> 100,,52.7,,,,68.2,,43.2,,> 100,,> 10
CCOC(=O)c1ccc(Nc2sc(C(=O)c3ccc(Br)cc3)c(N)c2C#N)cc1,1.99,> 100,> 100000,> 100,0.884,> 100,447,> 100,19.2,> 100,797,> 100,1.02,> 100,658,> 45.5,,,6.19,> 100
COc1ccc2c(c1)[n+]([O-])c(-c1ccc([N+](=O)[O-])cc1)c(N)[n+]2[O-],,> 100,,,,> 100,,> 100,,> 100,,,,> 100,,> 100,,,,> 100
